# Assay results from ChEMBL document CHEMBL1201862, “PubChem BioAssay data set” (2004).
# Calls of active or inactive are those of the source.
# Assays:
# [1] = biological target: DNA dC->dU-editing enzyme APOBEC-3G (Homo sapiens, UniProt Q9HC16); assay: Dose Response confirmation of small molecule APOBEC3G DNA Deaminase Inhibitors via a fluorescence-based single-stranded DNA deaminase assay. [Related pubchem assays (depositor defined):AID493012, AID493028]; assay type: functional
# [2] = biological target: T1, Small ubiquitin-related modifier 1 (Homo sapiens, UniProt P63165); assay: SUMO1 protein interaction blockers, potency – biochemical, fluorescence polarization, uHTS hits, dose response (AID 624382); assay type: functional; conditions: read-out: IC50_Mean
# [3] = biological target: T1, Small ubiquitin-related modifier 1; assay: SUMO1 protein-protein binding blockers, potency – biochemical, FRET, dose response (AID 624383); assay type: functional; conditions: read-out: IC50_Mean
# [4] = biological target: Induced myeloid leukemia cell differentiation protein Mcl-1 (Homo sapiens, UniProt Q07820); assay type: functional
# [5] = biological target: DNA (cytosine-5)-methyltransferase 1 (Homo sapiens, UniProt P26358); assay: inhibition of DNA methylation by DNMT1 – biochemical, fluorescent molecular beacon, confirmation (AID 602386); assay type: functional
# [6] = biological target: T2, Carboxy-terminal domain RNA polymerase II polypeptide A small phosphatase 1 (Homo sapiens, UniProt Q9GZU7); assay: CTDSP1 inhibitors, concentration-response, biochemical, absorbance readout, ultra-high-throughput screen actives (AID 540297); assay type: functional
# T2 sequence (Q9GZU7 whole entry): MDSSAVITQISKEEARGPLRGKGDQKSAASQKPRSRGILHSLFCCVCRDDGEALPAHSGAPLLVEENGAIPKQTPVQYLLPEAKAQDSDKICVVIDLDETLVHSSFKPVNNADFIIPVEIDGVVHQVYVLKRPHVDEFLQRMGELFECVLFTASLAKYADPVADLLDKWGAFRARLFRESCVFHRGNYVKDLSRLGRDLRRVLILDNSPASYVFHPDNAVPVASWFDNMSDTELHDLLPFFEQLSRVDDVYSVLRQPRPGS
# [7] = biological target: DNA dC->dU-editing enzyme APOBEC-3A (Homo sapiens, UniProt P31941); assay: A3A deaminase inhibition for selectivity – biochemical, dose response (AID 504722); assay type: functional
# [8] = biological target: T3, Apoptotic protease-activating factor 1 (Homo sapiens, UniProt O14727); assay: activation of Apaf-1 mediated apoptosis – fluorescent, uHTS hits, dose response (AID 588554); assay type: functional
# T3 sequence (O14727 whole entry): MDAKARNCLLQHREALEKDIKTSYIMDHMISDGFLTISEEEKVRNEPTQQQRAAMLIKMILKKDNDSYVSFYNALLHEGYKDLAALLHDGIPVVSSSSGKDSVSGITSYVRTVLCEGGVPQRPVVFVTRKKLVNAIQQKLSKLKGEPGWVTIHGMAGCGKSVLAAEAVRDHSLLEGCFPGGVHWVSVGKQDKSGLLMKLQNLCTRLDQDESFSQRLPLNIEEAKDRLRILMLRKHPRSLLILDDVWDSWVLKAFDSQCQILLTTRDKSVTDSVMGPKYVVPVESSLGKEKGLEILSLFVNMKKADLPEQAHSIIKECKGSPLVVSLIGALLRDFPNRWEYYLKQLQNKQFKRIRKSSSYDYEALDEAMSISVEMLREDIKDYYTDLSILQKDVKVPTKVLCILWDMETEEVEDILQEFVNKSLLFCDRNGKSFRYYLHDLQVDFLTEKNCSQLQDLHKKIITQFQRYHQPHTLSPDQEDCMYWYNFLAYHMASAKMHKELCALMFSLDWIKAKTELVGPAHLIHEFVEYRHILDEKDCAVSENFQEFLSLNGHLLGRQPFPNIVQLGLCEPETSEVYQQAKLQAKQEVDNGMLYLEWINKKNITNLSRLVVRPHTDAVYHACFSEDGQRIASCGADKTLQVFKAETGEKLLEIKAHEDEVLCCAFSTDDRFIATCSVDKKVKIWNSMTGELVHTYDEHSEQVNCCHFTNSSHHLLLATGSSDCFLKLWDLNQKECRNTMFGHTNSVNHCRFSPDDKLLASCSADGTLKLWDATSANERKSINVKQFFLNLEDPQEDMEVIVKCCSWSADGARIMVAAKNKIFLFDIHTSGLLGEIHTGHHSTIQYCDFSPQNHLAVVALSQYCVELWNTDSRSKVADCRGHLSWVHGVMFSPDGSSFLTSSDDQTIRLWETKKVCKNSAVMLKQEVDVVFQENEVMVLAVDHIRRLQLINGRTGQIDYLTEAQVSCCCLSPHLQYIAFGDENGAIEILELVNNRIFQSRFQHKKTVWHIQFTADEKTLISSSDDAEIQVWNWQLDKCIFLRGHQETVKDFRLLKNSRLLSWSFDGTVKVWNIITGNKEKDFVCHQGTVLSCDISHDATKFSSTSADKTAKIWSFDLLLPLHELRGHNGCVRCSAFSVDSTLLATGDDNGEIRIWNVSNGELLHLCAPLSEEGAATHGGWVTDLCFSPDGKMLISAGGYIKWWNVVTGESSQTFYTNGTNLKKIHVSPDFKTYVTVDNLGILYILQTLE
# [9] = NIH3T3 cell viability loss – ATP luminescence, mouse fibroblasts, counter-screen, dose response (AID 2010); assay type: functional, cell-based;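 also: cells exposed to compound for about 90 hours before reading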
# [10] = Luminescence Cell-Based Secondary HTS screen to identify cytotoxic compounds of NIH3T3 cells. [Related pubchem assays: 1885, 1968 ]; assay type: functional
# [11] = cells
# [12] = T. cruzi infection blockers in NIH3T3 cells – beta-gal luminescence, NIH3T3 host cells, confirmation (AID 2630); assay type: functional, cell-based; conditions: Mus musculus
# [13] = Luminescence Cell-Based/Microorganism Confirmation at Dose of Inhibitors of Trypanosoma cruzi Infection. [Related pubchem assays: 1885, 1968 ]; assay type: functional
# [14] = Trypanosoma cruzi growth suppression in host cells – NIH3T3 host cells, beta-gal luminescence, confirmation (AID 2044); assay type: functional, cell-based;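 also: intracellular parasites grown in NIH/3T3 mouse fibroblasts as host cells; luminescent beta-galactosidase reporter signal from transgenic T. cruzi replicating inside host cells; inhibitors lower the luminescence signal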
# [15] = biological target: Dual specificity protein kinase CLK1 (Homo sapiens, UniProt P49759); assay: inhibition of human CLK1 activity – biochemical, cherry-picked samples, selectivity assay for Dyrk1A inhibitor project, dose response (AID 588811)
# [16] = biological target: Dual specificity tyrosine-phosphorylation-regulated kinase 1A (Rattus norvegicus, UniProt Q63470); assay type: biochemical, Homo sapiens
# [17] = biological target: T4, Dual specificity protein phosphatase 6 (Rattus norvegicus, UniProt Q64346)
# T4 sequence (Q64346 whole entry): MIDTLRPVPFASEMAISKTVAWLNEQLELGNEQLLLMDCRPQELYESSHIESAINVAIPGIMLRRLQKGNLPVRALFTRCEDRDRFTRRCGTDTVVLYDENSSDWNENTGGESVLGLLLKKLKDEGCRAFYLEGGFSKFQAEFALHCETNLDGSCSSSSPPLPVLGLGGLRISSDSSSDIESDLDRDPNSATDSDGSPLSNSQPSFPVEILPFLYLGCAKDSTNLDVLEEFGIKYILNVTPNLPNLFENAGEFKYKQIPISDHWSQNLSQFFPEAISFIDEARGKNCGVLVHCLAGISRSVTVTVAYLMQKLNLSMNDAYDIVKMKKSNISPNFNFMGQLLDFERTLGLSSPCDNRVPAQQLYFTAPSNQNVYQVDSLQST
# [18] = biological target: T5, Tyrosine-protein phosphatase non-receptor type 7 (Homo sapiens, UniProt P35236); assay type: functional
# T5 sequence (P35236 whole entry): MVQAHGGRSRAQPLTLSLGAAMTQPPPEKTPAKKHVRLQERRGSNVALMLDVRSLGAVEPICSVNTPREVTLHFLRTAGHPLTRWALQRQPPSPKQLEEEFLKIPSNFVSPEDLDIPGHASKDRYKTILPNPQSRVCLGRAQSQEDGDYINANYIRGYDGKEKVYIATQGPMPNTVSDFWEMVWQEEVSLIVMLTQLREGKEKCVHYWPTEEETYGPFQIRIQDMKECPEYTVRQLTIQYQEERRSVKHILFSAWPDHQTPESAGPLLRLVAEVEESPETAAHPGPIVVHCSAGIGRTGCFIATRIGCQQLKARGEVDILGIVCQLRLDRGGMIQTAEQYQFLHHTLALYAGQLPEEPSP
# [19] = biological target: Glyceraldehyde-3-phosphate dehydrogenase (Homo sapiens, UniProt P04406)
# [20] = biological target: T4, Dual specificity protein phosphatase 6; assay type: functional
# [21] = tested on: Vero; assay: cells; assay type: functional; conditions: Chlorocebus sabaeus
# [22] = biological target: Steroidogenic factor 1 (Homo sapiens, UniProt Q13285); assay: Counterscreen for inverse agonists of the liver receptor homolog-1 (LRH-1; NR5A2): Luminescence-based cell-based high throughput dose response assay to identify inverse agonists of the Steroidogenic Factor 1 Nuclear Receptor (SF1; NR5A1).; assay type: functional
# [23] = tested on: Vero; assay: cells; assay type: functional, cell-based; conditions: Chlorocebus sabaeus
# [24] = biological target: T6, Heat shock factor protein 1 (Mus musculus, UniProt P38532); assay: enhancement of HSF1-driven luciferase signal – cell-based, NIH3T3, luminescence, dose retest, confirmation (AID 435004); assay type: functional;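 also: stress induced by proteasome inhibitor MG132 added 30 min after compound; luciferase reporter driven by HSF1 response element in NIH3T3 cells; actives raise luminescence as potentiators of the MG132 stress response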
# T6 sequence (P38532 whole entry): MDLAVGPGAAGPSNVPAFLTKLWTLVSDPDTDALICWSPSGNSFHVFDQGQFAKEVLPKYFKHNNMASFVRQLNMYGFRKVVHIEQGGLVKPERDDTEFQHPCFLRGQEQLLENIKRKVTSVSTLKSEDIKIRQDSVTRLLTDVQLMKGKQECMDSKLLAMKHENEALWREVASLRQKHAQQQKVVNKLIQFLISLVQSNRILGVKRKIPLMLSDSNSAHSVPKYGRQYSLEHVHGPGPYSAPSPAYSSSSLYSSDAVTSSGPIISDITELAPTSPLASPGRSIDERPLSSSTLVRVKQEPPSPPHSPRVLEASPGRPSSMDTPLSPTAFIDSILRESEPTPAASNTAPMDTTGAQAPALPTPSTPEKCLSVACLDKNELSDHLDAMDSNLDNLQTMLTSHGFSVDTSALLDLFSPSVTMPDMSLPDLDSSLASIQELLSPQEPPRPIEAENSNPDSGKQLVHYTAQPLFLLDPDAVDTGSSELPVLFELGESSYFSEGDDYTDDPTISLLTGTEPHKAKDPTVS
# [25] = biological target: Nuclear receptor subfamily 5 group A member 2 (Homo sapiens, UniProt O00482); assay type: functional, cell-based;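 also: HEK293T cells transfected with LRH-1 and a StAR promoter luciferase reporter; potency for inhibitors that lower LRH-1 driven reporter light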
# [26] = nonselective StAR promoter luciferase inhibitors – cell-based, luminescence, luciferase reporter, counter-screen for LRH-1 inverse agonist project, dose response (AID 651969); assay type: functional
# T1 sequence (P63165 whole entry): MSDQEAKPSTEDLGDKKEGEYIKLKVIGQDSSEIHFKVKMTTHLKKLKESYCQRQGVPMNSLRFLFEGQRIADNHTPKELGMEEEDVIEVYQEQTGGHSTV
# Dual specificity protein kinase CLK1, sequence (P49759 whole entry): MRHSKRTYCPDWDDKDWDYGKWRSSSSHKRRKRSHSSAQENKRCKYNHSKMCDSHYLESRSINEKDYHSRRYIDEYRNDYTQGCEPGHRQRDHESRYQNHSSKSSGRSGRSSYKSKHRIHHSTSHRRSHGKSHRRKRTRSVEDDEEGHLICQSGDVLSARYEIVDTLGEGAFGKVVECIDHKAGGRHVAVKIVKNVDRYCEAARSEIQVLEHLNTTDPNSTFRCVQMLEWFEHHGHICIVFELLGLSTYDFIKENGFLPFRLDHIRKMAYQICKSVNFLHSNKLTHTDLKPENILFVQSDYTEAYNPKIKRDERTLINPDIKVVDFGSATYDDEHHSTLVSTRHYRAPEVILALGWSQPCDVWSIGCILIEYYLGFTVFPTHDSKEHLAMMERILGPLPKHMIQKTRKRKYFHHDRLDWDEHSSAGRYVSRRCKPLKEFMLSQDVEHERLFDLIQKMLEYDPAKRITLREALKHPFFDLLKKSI
# DNA dC->dU-editing enzyme APOBEC-3G, sequence (Q9HC16 whole entry): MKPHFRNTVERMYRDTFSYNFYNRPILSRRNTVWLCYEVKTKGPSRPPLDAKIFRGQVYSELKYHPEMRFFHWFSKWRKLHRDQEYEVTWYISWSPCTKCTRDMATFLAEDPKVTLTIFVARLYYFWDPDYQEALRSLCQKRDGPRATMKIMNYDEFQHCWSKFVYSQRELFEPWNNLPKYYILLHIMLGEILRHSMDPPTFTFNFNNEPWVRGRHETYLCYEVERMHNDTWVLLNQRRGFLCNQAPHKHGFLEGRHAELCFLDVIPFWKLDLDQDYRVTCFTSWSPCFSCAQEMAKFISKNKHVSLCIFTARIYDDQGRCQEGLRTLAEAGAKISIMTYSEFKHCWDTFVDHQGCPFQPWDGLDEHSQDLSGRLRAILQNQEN
# Steroidogenic factor 1, sequence (Q13285 whole entry): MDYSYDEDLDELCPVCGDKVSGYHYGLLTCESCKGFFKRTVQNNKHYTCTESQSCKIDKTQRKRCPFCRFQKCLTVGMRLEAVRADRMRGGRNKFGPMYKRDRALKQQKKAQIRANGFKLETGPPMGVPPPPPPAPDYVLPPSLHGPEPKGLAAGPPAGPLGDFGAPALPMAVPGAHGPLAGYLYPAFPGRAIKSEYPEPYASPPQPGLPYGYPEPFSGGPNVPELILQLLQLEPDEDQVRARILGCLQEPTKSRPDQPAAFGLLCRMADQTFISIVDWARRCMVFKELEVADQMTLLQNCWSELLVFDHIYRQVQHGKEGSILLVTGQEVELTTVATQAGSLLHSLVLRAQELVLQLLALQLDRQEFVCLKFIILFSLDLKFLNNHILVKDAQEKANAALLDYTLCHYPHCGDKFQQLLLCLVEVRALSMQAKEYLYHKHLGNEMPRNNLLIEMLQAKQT
# DNA (cytosine-5)-methyltransferase 1, sequence (P26358 whole entry, the tested form may be a part): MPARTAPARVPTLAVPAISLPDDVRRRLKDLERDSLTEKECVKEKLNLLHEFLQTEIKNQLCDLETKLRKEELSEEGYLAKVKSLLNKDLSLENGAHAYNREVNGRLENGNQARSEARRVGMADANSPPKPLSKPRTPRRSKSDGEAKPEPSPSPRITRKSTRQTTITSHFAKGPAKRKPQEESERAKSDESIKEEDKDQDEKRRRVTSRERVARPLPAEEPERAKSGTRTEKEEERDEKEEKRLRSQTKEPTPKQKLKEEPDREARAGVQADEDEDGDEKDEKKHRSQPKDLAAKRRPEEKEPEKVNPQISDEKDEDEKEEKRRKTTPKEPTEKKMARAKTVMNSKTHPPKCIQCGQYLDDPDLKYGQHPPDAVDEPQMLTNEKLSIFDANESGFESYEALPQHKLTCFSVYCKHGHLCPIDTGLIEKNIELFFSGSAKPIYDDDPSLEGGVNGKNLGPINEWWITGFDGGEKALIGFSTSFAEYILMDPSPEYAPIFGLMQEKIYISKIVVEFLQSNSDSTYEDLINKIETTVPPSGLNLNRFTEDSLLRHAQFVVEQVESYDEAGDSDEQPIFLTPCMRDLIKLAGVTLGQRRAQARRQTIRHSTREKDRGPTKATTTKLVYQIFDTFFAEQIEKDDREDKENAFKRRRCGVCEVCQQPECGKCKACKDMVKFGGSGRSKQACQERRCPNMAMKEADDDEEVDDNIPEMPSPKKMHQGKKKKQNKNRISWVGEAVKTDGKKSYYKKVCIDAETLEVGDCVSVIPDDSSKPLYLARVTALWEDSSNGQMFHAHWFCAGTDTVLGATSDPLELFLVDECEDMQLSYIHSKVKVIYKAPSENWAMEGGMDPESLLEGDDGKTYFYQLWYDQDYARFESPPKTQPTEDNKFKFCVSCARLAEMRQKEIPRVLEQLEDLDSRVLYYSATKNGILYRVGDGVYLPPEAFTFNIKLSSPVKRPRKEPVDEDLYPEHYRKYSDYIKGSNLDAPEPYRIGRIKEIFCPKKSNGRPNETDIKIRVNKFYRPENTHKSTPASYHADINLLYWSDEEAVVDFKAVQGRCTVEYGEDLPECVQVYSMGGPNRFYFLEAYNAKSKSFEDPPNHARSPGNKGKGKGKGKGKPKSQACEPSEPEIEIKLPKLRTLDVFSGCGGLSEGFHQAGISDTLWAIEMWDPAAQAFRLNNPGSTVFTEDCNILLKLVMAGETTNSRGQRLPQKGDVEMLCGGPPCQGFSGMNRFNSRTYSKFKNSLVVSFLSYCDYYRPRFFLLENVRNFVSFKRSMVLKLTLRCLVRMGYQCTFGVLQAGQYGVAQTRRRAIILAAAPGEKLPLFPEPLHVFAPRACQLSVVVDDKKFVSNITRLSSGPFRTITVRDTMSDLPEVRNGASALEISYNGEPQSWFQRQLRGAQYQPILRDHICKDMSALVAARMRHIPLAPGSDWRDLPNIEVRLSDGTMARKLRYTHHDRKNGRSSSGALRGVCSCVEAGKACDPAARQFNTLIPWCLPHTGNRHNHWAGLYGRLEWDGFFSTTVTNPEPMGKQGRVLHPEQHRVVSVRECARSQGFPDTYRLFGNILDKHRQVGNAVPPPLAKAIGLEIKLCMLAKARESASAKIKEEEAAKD
# Nuclear receptor subfamily 5 group A member 2, sequence (O00482 whole entry): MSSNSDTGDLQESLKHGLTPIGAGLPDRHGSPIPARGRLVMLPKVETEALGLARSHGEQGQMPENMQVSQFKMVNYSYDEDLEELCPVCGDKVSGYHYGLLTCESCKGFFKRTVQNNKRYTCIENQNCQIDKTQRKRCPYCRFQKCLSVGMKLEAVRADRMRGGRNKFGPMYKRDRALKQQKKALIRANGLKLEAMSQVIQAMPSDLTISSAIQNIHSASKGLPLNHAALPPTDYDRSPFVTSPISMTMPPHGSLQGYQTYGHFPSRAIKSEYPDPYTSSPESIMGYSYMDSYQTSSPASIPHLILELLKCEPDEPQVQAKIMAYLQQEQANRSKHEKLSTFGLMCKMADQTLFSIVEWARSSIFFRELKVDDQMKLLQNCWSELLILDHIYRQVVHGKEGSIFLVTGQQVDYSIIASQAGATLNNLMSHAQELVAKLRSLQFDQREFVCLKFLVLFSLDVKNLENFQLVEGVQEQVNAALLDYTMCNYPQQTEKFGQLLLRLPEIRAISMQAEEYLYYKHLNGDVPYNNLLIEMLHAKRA
# Glyceraldehyde-3-phosphate dehydrogenase, sequence (P04406 whole entry): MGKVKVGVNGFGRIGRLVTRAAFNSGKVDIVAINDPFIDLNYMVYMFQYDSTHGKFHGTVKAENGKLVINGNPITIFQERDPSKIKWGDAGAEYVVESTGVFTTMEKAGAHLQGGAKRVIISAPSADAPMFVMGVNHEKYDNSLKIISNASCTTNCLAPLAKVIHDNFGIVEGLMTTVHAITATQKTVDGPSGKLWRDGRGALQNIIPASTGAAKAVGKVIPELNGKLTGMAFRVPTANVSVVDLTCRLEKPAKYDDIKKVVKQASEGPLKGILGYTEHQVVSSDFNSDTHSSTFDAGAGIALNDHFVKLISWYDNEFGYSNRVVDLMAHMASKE
# Induced myeloid leukemia cell differentiation protein Mcl-1, sequence (Q07820 whole entry): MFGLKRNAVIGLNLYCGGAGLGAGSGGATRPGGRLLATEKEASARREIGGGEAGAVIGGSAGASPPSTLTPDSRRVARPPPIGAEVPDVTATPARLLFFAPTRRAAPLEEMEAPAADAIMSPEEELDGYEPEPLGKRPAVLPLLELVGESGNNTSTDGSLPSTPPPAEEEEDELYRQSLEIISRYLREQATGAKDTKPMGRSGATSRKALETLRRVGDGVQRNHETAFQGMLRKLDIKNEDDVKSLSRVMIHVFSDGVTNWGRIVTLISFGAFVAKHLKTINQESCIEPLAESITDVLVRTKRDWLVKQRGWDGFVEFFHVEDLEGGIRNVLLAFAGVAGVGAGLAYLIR
# DNA dC->dU-editing enzyme APOBEC-3A, sequence (P31941 whole entry): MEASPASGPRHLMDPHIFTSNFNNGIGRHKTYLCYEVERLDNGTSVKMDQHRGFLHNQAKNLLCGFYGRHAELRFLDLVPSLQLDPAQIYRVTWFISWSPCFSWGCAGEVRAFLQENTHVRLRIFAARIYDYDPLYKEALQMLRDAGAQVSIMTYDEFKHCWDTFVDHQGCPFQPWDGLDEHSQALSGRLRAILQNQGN
structure (smiles),measurement,setting,value
C=C(C)C(=O)Nc1cccc(C2=NOC3(C2)C[C@@H](C(N)=O)N(C(=O)C(=C)C)C3)c1 (stereo partly specified),IC50,[1],5.94 µM (active)
same,IC50,[2],> 66.6 µM (inactive)
same,IC50,[3],2.56 µM (active)
same,IC50,[4],3.08 µM (not active)
same,IC50,[5],4.95 µM (active)
same,IC50,[6],1.89 µM (active)
same,IC50,[7],> 100 µM (inactive)
same,EC50,[8],1.24 µM (active)
CC(C)=CCCC(C)CN(C)CCc1ccccn1 (stereo unspecified),EC50,[9],> 60 µM (not active)
same,EC50,[10],> 195 µM (not active)
same,EC50,[11],0.083 µM (active)
same,EC50,[12],0.027 µM (active)
same,EC50,[13],0.027 µM (active)
same,EC50,[14],< 0.1 µM (active)
CC(=O)Nc1ccc(Nc2cc(C)nc3c(-c4ccccc4)cnn23)cc1,AC50,[15],15.3 µM (active)
same,AC50,[16],5.54 µM (active)
CCCCCCCCCCCCCCCCCCC#CCCCCCCCCCCC(=O)O,IC50,[17],> 100 µM (inactive)
same,IC50,[18],15.2 µM (active)
same,IC50,[19],> 100 µM (not active)
same,IC50,[20],> 100 µM (inactive)
O=C(Nc1ccc(Br)cn1)c1ccc([N+](=O)[O-])o1,CC50,[21],13.8 µM (active)
same,IC50,[22],35.9 µM (inactive)
same,IC50,[23],> 25 µM (active)
same,EC50,[24],16.7 µM (active)
same,IC50,[25],35.9 µM (inactive)
same,IC50,[26],35.9 µM (inactive)
